Reference: patent publication US20250049781A1, “PHARMACEUTICAL COMPOSITIONS COMPRISING RPL554 IN HFA-134A FOR ADMINISTRATION BY INHALATION” (VERONA PHARMA PLC, priority 2018, published 2025)
Where “and” joins values, the source holds several entries; their conditions need not be identical. Equal values may be shown once.

Tests used:
Format in all cases: physicochemical
[1] = Sedimentation score of RPL554 suspensions in HFA-134a, HFA-227ea and mixtures (visual, glass vials); set-up: key to Sedimentation score: 1 = fastest sediment/cream (undesirable), 10 = slowest (acceptable)
Protocol: (§1) Samples were made by adding the required amounts of RPL554 (see Table 3) to 15 ml pressure rated clear glass vials. The propellant, HFA-134a, HFA-227ea or combinations of the two (see Table 4) was added through the valve and the samples were mixed in an ultrasonic bath for 30 seconds. The same target fill weight of 11.6 g (±0.5 g) was used for all samples. The appearance of the API particles in the propellants was assessed with regards to both the sedimentation rate and flocculation behaviour (see FIG. 1). The sedimentation rate of the formulations was visually assessed after suspension agitation by recording images of the glass vials using a high-speed camera. The suspension quality was determined by assigning a sedimentation score of from 1 to 10 based on the amount of active particles which had settled or floated in 30 seconds, with 1being the fastest to sediment/cream (i.e. undesirable) and 10 being the slowest to sediment/cream (i.e. acceptable).

[2] = Sedimentation score of pMDI formulations containing HFA-134a, oleic acid and ethanol; set-up: key: 1 = fastest sedimentation (undesirable), 10 = slowest (acceptable)
Protocol: as §1
In order to seek to improve the suspension characteristics the inclusion of additional excipients was investigated. In particular, formulations further comprising a surfactant (oleic acid, Ph. Eur./BP) and a co-solvent (ethanol, 100% USP-NF) were prepared.

[3] = RPL554 dissolved in HFA-134a/ethanol with or without oleic acid (UV/Visible); details: 24 hours at ambient temperature
Protocol: Samples were prepared by adding 1.5 mg of RPL554 to plain 14 mL aluminium canisters, with ethanol, oleic acid and HFA-134a. Excipients were added to the canisters to maintain an ethanol/oleic acid ratio of a 50:1 (see Table 8). Corresponding canisters were also produced containing RPL554, ethanol and HFA-134a only. The canisters were crimped with 63 μL pMDI valves, with shortened dip tubes (FIG. 3), and filled to 11.6 g with HFA-134a through the valve. The length of the dip tubes was sufficient to extend into the liquid propellant/co-solvent phase only (i.e. after the API particles had settled). The samples were placed in an ultrasonic bath for 30 seconds.
All the canisters were left for 24 hours at ambient temperature to settle and to establish dissolution equilibrium. To determine the amount of API dissolved, each canister was fired five times, in an upright position (through a cannula fitted to the valve stem) into a 10.0 cm^3 volumetric flask. The flask was made up to volume with dehydrated ethanol and the solution was analysed using UV/Visible spectroscopy (Perkin Elmer, Model Lambda 35). The concentration of RPL554 was calculated, quantitatively, against a three point standard curve.

[4] = Solubility of RPL554 in ethanol (USP/BP criteria)
Protocol: However, the observations of dissolution and recrystallisation with the lowest product strength (10 μg/actuation) prompted further investigations into the solubility of RPL554 in ethanol in the presence of oleic acid.
The original assessment was carried out using Analytical Reagent grade ethanol. […] Unexpectedly, RPL554 was therefore found to have some solubility in ethanol.

With `COc1cc2c(cc1OC)-c1c/c(=N\c3c(C)cc(C)cc3C)n(CCNC(N)=O)c(=O)n1CC2` [RPL554, 9,10-dimethoxy-2-(2,4,6-trimethylphenylimino)-3-(N-carbamoyl-2-aminoethyl)-3,4,6,7-tetrahydro-2H-pyrimido[6,1-a]isoquinolin-4-one] the Sedimentation score ([1]; 10 μg/actuation, HFA-134a 0% w/w, HFA-227ea 100% w/w) was 3, the Sedimentation score ([1]; 10 μg/actuation, HFA-134a 25% w/w, HFA-227ea 75% w/w) was 5 and the Sedimentation score ([1]; 10 μg/actuation, HFA-134a 50% w/w, HFA-227ea 50% w/w) was 4. For the same compound, the Sedimentation score ([1]; 10 μg/actuation, HFA-134a 75% w/w, HFA-227ea 25% w/w) was 6, the Sedimentation score ([1]; 10 μg/actuation, HFA-134a 100% w/w, HFA-227ea 0% w/w, scale 1-10, 10 slowest) was 6 and the Sedimentation score ([1]; 50 μg/actuation, HFA-134a 0% w/w, HFA-227ea 100% w/w) was 3. It also gave a Sedimentation score ([1]; 50 μg/actuation, HFA-134a 25% w/w, HFA-227ea 75% w/w) of 4, a Sedimentation score ([1]; 50 μg/actuation, HFA-134a 50% w/w, HFA-227ea 50% w/w) of 3 and a Sedimentation score ([1]; 50 μg/actuation, HFA-134a 75% w/w, HFA-227ea 25% w/w) of 6. It also gave a Sedimentation score ([1]; 50 μg/actuation, HFA-134a 100% w/w, HFA-227ea 0% w/w) of 6, a Sedimentation score ([1]; 150 μg/actuation, HFA-134a 0% w/w, HFA-227ea 100% w/w) of 3 and a Sedimentation score ([1]; 150 μg/actuation, HFA-134a 25% w/w, HFA-227ea 75% w/w) of 4. For the same compound, the Sedimentation score ([1]; 150 μg/actuation, HFA-134a 50% w/w, HFA-227ea 50% w/w) was 3, the Sedimentation score ([1]; 150 μg/actuation, HFA-134a 75% w/w, HFA-227ea 25% w/w) was 3 and the Sedimentation score ([1]; 150 μg/actuation, HFA-134a 100% w/w, HFA-227ea 0% w/w) was 5. For the same compound, the Sedimentation score ([1]; 500 μg/actuation, HFA-134a 0% w/w, HFA-227ea 100% w/w) was 2, the Sedimentation score ([1]; 500 μg/actuation, HFA-134a 25% w/w, HFA-227ea 75% w/w) was 3 and the Sedimentation score ([1]; 500 μg/actuation, HFA-134a 50% w/w, HFA-227ea 50% w/w) was 2. It also gave a Sedimentation score ([1]; 500 μg/actuation, HFA-134a 75% w/w, HFA-227ea 25% w/w) of 3, a Sedimentation score ([1]; 500 μg/actuation, HFA-134a 100% w/w, HFA-227ea 0% w/w) of 3 and a Sedimentation score ([1]; 1000 μg/actuation, HFA-134a 0% w/w, HFA-227ea 100% w/w) of 2. It also gave a Sedimentation score ([1]; 1000 μg/actuation, HFA-134a 25% w/w, HFA-227ea 75% w/w) of 4, a Sedimentation score ([1]; 1000 μg/actuation, HFA-134a 50% w/w, HFA-227ea 50% w/w) of 3 and a Sedimentation score ([1]; 1000 μg/actuation, HFA-134a 75% w/w, HFA-227ea 25% w/w) of 4. For the same compound, the Sedimentation score ([1]; 1000 μg/actuation, HFA-134a 100% w/w, HFA-227ea 0% w/w) was 4, the “Suspension behaviour on and after shaking” value (“Suspension behaviour” below) ([1]; formulation in HFA-134a) was “readily suspended on shaking, with rapid flocculation and gradual sedimentation observed after shaking was stopped” and the “Suspension behaviour” value ([1]; formulation in HFA-227ea) was “creaming was observed after the cessation of shaking”. The “Suspension behaviour” value ([1]; formulation in blend of HFA-134a/HFA-227ea (50/50)) was “creaming was observed after the cessation of shaking”, the Sedimentation score ([2]; 10 μg/actuation, ethanol 1% w/w, oleic acid 0.010% w/w) was 6 and the Sedimentation score ([2]; 10 μg/actuation, ethanol 1% w/w, oleic acid 0.500% w/w) was 1. The Sedimentation score ([2]; 10 μg/actuation, ethanol 5% w/w, oleic acid 0.255% w/w) was 6, the Sedimentation score ([2]; 10 μg/actuation, ethanol 15% w/w, oleic acid 0.010% w/w) was 6 and the Sedimentation score ([2]; 10 μg/actuation, ethanol 15% w/w, oleic acid 0.500% w/w) was 6. The Sedimentation score ([2]; 150 μg/actuation, ethanol 1% w/w, oleic acid 0.255% w/w) was 2, the Sedimentation score ([2]; 150 μg/actuation, ethanol 5% w/w, oleic acid 0.010% w/w) was 4 and the Sedimentation score ([2]; 150 μg/actuation, ethanol 5% w/w, oleic acid 0.255% w/w (six replicate samples)) was 5 (5×) and 4. The Sedimentation score ([2]; 150 μg/actuation, ethanol 5% w/w, oleic acid 0.500% w/w) was 4, the Sedimentation score ([2]; 150 μg/actuation, ethanol 15% w/w, oleic acid 0.255% w/w) was 8 and the Sedimentation score ([2]; 1000 μg/actuation, ethanol 1% w/w, oleic acid 0.010% w/w) was 3. It also gave a Sedimentation score ([2]; 1000 μg/actuation, ethanol 1% w/w, oleic acid 0.500% w/w) of 2, a Sedimentation score ([2]; 1000 μg/actuation, ethanol 5% w/w, oleic acid 0.255% w/w) of 3 and a Sedimentation score ([2]; 1000 μg/actuation, ethanol 15% w/w, oleic acid 0.010% w/w) of 4. The Sedimentation score ([2]; 1000 μg/actuation, ethanol 15% w/w, oleic acid 0.500% w/w) was 5, the “Amount of dissolved RPL554 versus ethanol concentration” value ([3]; HFA-134a with 1-12% w/w ethanol) was “increased with increasing ethanol concentration” and the “Effect of oleic acid on the solubility of RPL554” value ([3]; HFA-134a/ethanol, ethanol/oleic acid ratio 50:1) was “no effect”. The “Solubility classification according to the USP/BP criteria” value ([4]; Analytical Reagent grade ethanol, previous (original) assessment) was “practically insoluble” and the “Solubility classification according to the USP/BP criteria” value ([4]; dehydrated alcohol (100% USP-NF ethanol), reassessment) was “very slightly soluble”.
